According to US8754054B2, “Antibacterial compounds, methods of making them, and uses thereof” (Albany Molecular Research, Inc., priority 2010, dated 2014):
In brackets after ≈: the same amount, converted by molar mass. Where a name gives a salt, the structure may show the parent alone. Read-outs that look alike come from different tables or passages of the source.

System: MRSA 43300
Assay: Antibacterial activity, NCCLS dilution method (Table 9)
Assay type: cell-based, S. aureus
Settings: Staphylococcus aureus, MRSA, read-out: MRSA 43300 MIC
Excerpt: NCCLS standards for antimicrobial susceptibility testing using the dilution method were followed. See: Performance Standards for Antimicrobial Susceptibility Testing; Fourteenth Informational Supplement. NCCLS Document M100-S14 (ISBN 1-56238-516-X), 2004. NCCLS, 940 West Valley Road, Suite 1400, Wayne, Pa. 19087-1898 USA, 2004; Methods for Dilution Antimicrobial Susceptibility Tests for Bacteria that Grow Aerobically; Approved Standard—Sixth Edition. NCCLS document M7-A6 (IBSBN 1-56238-486-4), NCCLS, 940 West Valley Road, Suite 1400, Wayne, Pa. 19087-1898 USA, 2003, which are hereby incorporated by reference in their entirety.

[1] = MRSA 43300, dilution method, labels marked a tested as a mixture of diastereomers

## COC(=O)c1c(C)cc2c(c1O)[C@]1(O)C(=O)c3cc4c(c(O)c3C(=O)[C@]1(OC)[C@H](O)C2)C(=O)C=C(N[C@H]1O[C@@H](C)[C@H](OC)[C@@H](O)[C@H]1OC)C4(C)O (single isomer, unassigned) [Example 55]
[1]
  MIC: 32 mg/L (≈ 44.8 µM)

## CO[C@@H]1[C@@H](O)[C@@H](OC)C(NC2=CC(=O)c3c(cc4c(c3O)C(=O)[C@]3(OC)[C@H](O)Cc5cc(C)c(C(=O)Nc6ccc(-c7ccccc7)cc6)c(O)c5[C@]3(O)C4=O)C2=O)O[C@H]1C (mixture of isomers) [Example 23, (6R,6aS,14aR)—N-(Biphenyl-4-yl)-1,6,8,14a-tetrahydroxy-11-((3R,4R,5R,6S)-4-hydroxy-3,5-dimethoxy-6-methyltetrahydro-2H-pyran-2-ylamino)-6a-methoxy-3-methyl-7,9,12,14-tetraoxo-5,6,6a,7,9,12,14,14a-octahydrobenzo[a]tetracene-2-carboxamide]
[1]
  MIC: 4 mg/L (≈ 4.79 µM)

## CO[C@@H]1[C@@H](O)[C@@H](OC)C(NC2=CC(=O)c3c(cc4c(c3O)C(=O)[C@]3(OC)[C@H](O)Cc5cc(C)c(C(=O)N(C)C)c(O)c5[C@]3(O)C4=O)C2=O)O[C@H]1C (mixture of isomers) [Example 16, (6R,6aS,14aR)-1,6,8,14a-Tetrahydroxy-11-((3R,4R,5R,6S)-4-hydroxy-3,5-dimethoxy-6-methyltetrahydro-2H-pyran-2-ylamino)-6a-methoxy-N,N,3-trimethyl-7,9,12,14-tetraoxo-5,6,6a,7,9,12,14,14a-octahydrobenzo[a]tetracene-2-carboxamide]
[1]
  MIC: 16 mg/L (≈ 22.5 µM)

## CO/N=C1/[C@@H](OC)[C@H](C)O[C@H](NC2=CC(=O)c3c(cc4c(c3O)C(=O)[C@]3(OC)[C@H](O)Cc5cc(C)c(C(=O)OC)c(O)c5[C@]3(O)C4=O)C2=O)[C@@H]1OC [Example 50, (6R,6aS,14aR)-Methyl 11-((2S,3R,5R,6S,Z)-3,5-dimethoxy-4-(methoxyimino)-6-methyltetrahydro-2H-pyran-2-ylamino)-1,6,8,14a-tetrahydroxy-6a-methoxy-3-methyl-7,9,12,14-tetraoxo-5,6,6a,7,9,12,14,14a-octahydrobenzo[a]tetracene-2-carboxylate]
[1]
  MIC: 0.25 mg/L (≈ 0.345 µM)

## CO[C@@H]1[C@@H](O)[C@@H](OC)C(NC2=CC(=O)c3c(cc4c(c3O)C(=O)[C@]3(OC)[C@H](O)Cc5cc(C)c(C(=O)NC6CCCCC6)c(O)c5[C@]3(O)C4=O)C2=O)O[C@H]1C (mixture of isomers) [Example 18, (6R,6aS,14aR)—N-Cyclohexyl-1,6,8,14a-tetrahydroxy-11-((3R,4R,5R,6S)-4-hydroxy-3,5-dimethoxy-6-methyltetrahydro-2H-pyran-2-ylamino)-6a-methoxy-3-methyl-7,9,12,14-tetraoxo-5,6,6a,7,9,12,14,14a-octahydrobenzo[a]tetracene-2-carboxamide]
[1]
  MIC: 2 mg/L (≈ 2.62 µM)

## COC(=O)c1c(C)cc2c(c1OC)[C@]1(O)C(=O)c3cc4c(c(O)c3C(=O)[C@]1(OC)[C@H](O)C2)C(=O)C=C(N[C@H]1O[C@@H](C)[C@H](OC)[C@@H](O)[C@H]1OC)C4=O [Example 4, (6R,6aS,14aR)-Methyl 6,8,14a-trihydroxy-11-((2S,3R,4R,5R,6S)-4-hydroxy-3,5-dimethoxy-6-methyltetrahydro-2H-pyran-2-ylamino)-1,6a-dimethoxy-3-methyl-7,9,12,14-tetraoxo-5,6,6a,7,9,12,14,14a-octahydrobenzo[a]tetracene-2-carboxylate]
[1]
  MIC: 0.06 to 0.12 mg/L (≈ 0.0843 to 0.169 µM)

## CO[C@@H]1[C@@H](O)[C@@H](OC)C(NC2=CC(=O)c3c(cc4c(c3O)C(=O)[C@]3(OC)[C@H](O)Cc5cc(C)c(C(=O)NCc6ccccc6)c(O)c5[C@]3(O)C4=O)C2=O)O[C@H]1C (mixture of isomers) [Example 30, (6R,6aS,14aR)—N-Benzyl-1,6,8,14a-tetrahydroxy-11-((3R,4R,5R,6S)-4-hydroxy-3,5-dimethoxy-6-methyltetrahydro-2H-pyran-2-ylamino)-6a-methoxy-3-methyl-7,9,12,14-tetraoxo-5,6,6a,7,9,12,14,14a-octahydrobenzo[a]tetracene-2-carboxamide]
[1]
  MIC: 0.12 to 0.5 mg/L (≈ 0.155 to 0.647 µM)

## CO[C@@H]1[C@@H](O)[C@@H](OC)[C@@H](NC2=CC(=O)c3c(cc4c(c3O)C(=O)[C@]3(OC)[C@H](O)Cc5cc(C)c(C(=O)OCCCc6ccccc6)c(O)c5[C@]3(O)C4=O)C2=O)O[C@H]1C [Example 33, (6R,6aS,14aR)-3-Phenylpropyl 1,6,8,14a-tetrahydroxy-11-((2S,3R,4R,5R,6S)-4-hydroxy-3,5-dimethoxy-6-methyltetrahydro-2H-pyran-2-ylamino)-6a-methoxy-3-methyl-7,9,12,14-tetraoxo-5,6,6a,7,9,12,14,14a-octahydrobenzo[a]tetracene-2-carboxylate]
[1]
  MIC: 1 to 2 mg/L (≈ 1.25 to 2.49 µM)

## COCC/N=C1\C=C(N[C@H]2O[C@@H](C)[C@H](OC)[C@@H](O)[C@H]2OC)C(=O)c2cc3c(c(O)c21)C(=O)[C@]1(OC)[C@H](O)Cc2cc(C)c(C(=O)OC)c(O)c2[C@]1(O)C3=O [Example 46, (6R,6aS,14aR,E)-methyl 1,6,8,14a-tetrahydroxy-11-((2S,3R,4R,5R,6S)-4-hydroxy-3,5-dimethoxy-6-methyltetrahydro-2H-pyran-2-ylamino)-6a-methoxy-9-(2-methoxyethylimino)-3-methyl-7,12,14-trioxo-5,6,6a,7,9,12,14,14a-octahydrobenzo[a]tetracene-2-carboxylate]
[1]
  MIC: 1 mg/L (≈ 1.32 µM)

## CO[C@@H]1[C@@H](O)[C@@H](OC)C(NC2=CC(=O)c3c(cc4c(c3O)C(=O)[C@]3(OC)[C@H](O)Cc5cc(C)c(C(=O)NCc6ccc(F)cc6)c(O)c5[C@]3(O)C4=O)C2=O)O[C@H]1C (mixture of isomers) [Example 26, (6R,6aS,14aR)—N-(4-Fluorobenzyl)-1,6,8,14a-tetrahydroxy-11-((3R,4R,5R,6S)-4-hydroxy-3,5-dimethoxy-6-methyltetrahydro-2H-pyran-2-ylamino)-6a-methoxy-3-methyl-7,9,12,14-tetraoxo-5,6,6a,7,9,12,14,14a-octahydrobenzo[a]tetracene-2-carboxamide]
[1]
  MIC: 0.5 mg/L (≈ 0.632 µM)

## CO[C@@H]1[C@@H](O)[C@@H](OC)C(NC2=CC(=O)c3c(cc4c(c3O)C(=O)[C@]3(OC)[C@H](O)Cc5cc(C)c(C(=O)NCc6cccnc6)c(O)c5[C@]3(O)C4=O)C2=O)O[C@H]1C (mixture of isomers) [Example 17, (6R,6aS,14aR)-1,6,8,14a-Tetrahydroxy-11-((3R,4R,5R,6S)-4-hydroxy-3,5-dimethoxy-6-methyltetrahydro-2H-pyran-2-ylamino)-6a-methoxy-3-methyl-7,9,12,14-tetraoxo-N-(pyridin-3-ylmethyl)-5,6,6a,7,9,12,14,14a-octahydrobenzo[a]tetracene-2-carboxamide hydrochloride]
  MIC: 32 mg/L

## COC(=O)c1c(C)cc2c(c1OC)[C@]1(O)C(=O)c3cc4c(c(OC)c3C(=O)[C@]1(OC)[C@H](O)C2)C(=O)C=C(NC1O[C@@H](C)[C@H](OC)[C@@H](O)[C@H]1OC)C4=O (mixture of isomers) [Example 5, (6R,6aS,14aR)-Methyl 6,14a-dihydroxy-11-((3R,4R,5R,6S)-4-hydroxy-3,5-dimethoxy-6-methyltetrahydro-2H-pyran-2-ylamino)-1,6a,8-trimethoxy-3-methyl-7,9,12,14-tetraoxo-5,6,6a,7,9,12,14,14a-octahydrobenzo[a]tetracene-2-carboxylate]
[1]
  MIC: 2 mg/L (≈ 2.76 µM)

## COC(=O)c1c(C)cc2c(c1OCC(=O)O)[C@]1(O)C(=O)c3cc4c(c(O)c3C(=O)[C@]1(OC)[C@H](O)C2)C(=O)C=C(NC1O[C@@H](C)[C@H](OC)[C@@H](O)[C@H]1OC)C4=O (stereo partly drawn) [Example 9, 2-((6R,6aS,14aR)-6,8,14a-Trihydroxy-11-((3R,4R,5R,6S)-4-hydroxy-3,5-dimethoxy-6-methyltetrahydro-2H-pyran-2-ylamino)-6a-methoxy-2-(methoxycarbonyl)-3-methyl-7,9,12,14-tetraoxo-5,6,6a,7,9,12,14,14a-octahydrobenzo[a]tetracen-1-yloxy)acetic acid]
[1]
  MIC: 32 mg/L (≈ 42.3 µM)

## COC(=O)c1c(C)cc2c(c1OCC(=O)N1CCCCC1)[C@]1(O)C(=O)c3cc4c(c(O)c3C(=O)[C@]1(OC)[C@H](O)C2)C(=O)C=C(N[C@H]1O[C@@H](C)[C@H](OC)[C@@H](O)[C@H]1OC)C4=O [Example 12, (6R,6aS,14aR)-Methyl 6,8,14a-trihydroxy-11-((2S,3R,4R,5R,6S)-4-hydroxy-3,5-dimethoxy-6-methyltetrahydro-2H-pyran-2-ylamino)-6a-methoxy-3-methyl-7,9,12,14-tetraoxo-1-(2-oxo-2-(piperidin-1-yl)ethoxy)-5,6,6a,7,9,12,14,14a-octahydrobenzo[a]tetracene-2-carboxylate]
[1]
  MIC: 0.25 to 1 mg/L (≈ 0.304 to 1.22 µM)

## COC(=O)c1c(C)cc2c(c1O)[C@]1(O)C(=O)c3cc4c(c(O)c3C(=O)[C@]1(OC)[C@H](O)C2)C(=O)C=C(N[C@H]1O[C@@H](C)[C@H](OC)/C(=N/OCCN)[C@H]1OC)C4=O [Example 52, (6R,6aS,14aR)-Methyl 11-((2S,3R,5R,6S,Z)-4-(2-aminoethoxyimino)-3,5-dimethoxy-6-methyltetrahydro-2H-pyran-2-ylamino)-1,6,8,14a-tetrahydroxy-6a-methoxy-3-methyl-7,9,12,14-tetraoxo-5,6,6a,7,9,12,14,14a-octahydrobenzo[a]tetracene-2-carboxylate]
[1]
  MIC: 0.12 to 0.25 mg/L (≈ 0.159 to 0.332 µM)

## COC(=O)c1c(C)cc2c(c1OCC(N)=O)[C@]1(O)C(=O)c3cc4c(c(O)c3C(=O)[C@]1(OC)[C@H](O)C2)C(=O)C=C(NC1O[C@@H](C)[C@H](OC)[C@@H](O)[C@H]1OC)C4=O (stereo partly drawn) [Example 10, (6R,6aS,14aR)-Methyl 1-(2-amino-2-oxoethoxy)-6,8,14a-trihydroxy-11-((3R,4R,5R,6S)-4-hydroxy-3,5-dimethoxy-6-methyltetrahydro-2H-pyran-2-ylamino)-6a-methoxy-3-methyl-7,9,12,14-tetraoxo-5,6,6a,7,9,12,14,14a-octahydrobenzo[a]tetracene-2-carboxylate]
[1]
  MIC: 32 mg/L (≈ 42.4 µM)
